# According to US20110015225A1, “Heterocyclic compound” (Takeda Pharmaceutical Company Limited, priority 2008, published 2011):
# Biological target: MCH receptor (SLC-1) (UniProt Q99705)
# Experiment: MCH receptor antagonistic activity using GTPγS binding assay
# Format: biochemical, human
# Details: [35S]-GTPγS binding, membrane fractions of SLC-1 expression CHO cells, 3×10^−10 M MCH, 25° C. 1 hr; read-out: Inhibitory Activity (IC50 value: nM)
# Method: Using human SLC-1 expression CHO cell clone 57 and rat SLC-1 expression CHO cell clone 44 described in WO01/82925, membrane fractions of SLC-1 expression CHO cells were prepared by the following method. In phosphate buffered saline (pH 7.4) supplemented with 5 mM EDTA (ethylenediaminetetraacetic acid) were suspended human and rat SLC-1 expression CHO cells (1×10^8) and centrifuged. Homogenate buffer (10 ml, 10 mM […], 5 mM EDTA, pH 7.5) was added to the pellets of the cells and, using Polytron Homogenizer, the mixture was homogenated. The supernatant obtained after centrifugation at 400×g for 15 min was further centrifuged at 100,000×g for 1 hr to give precipitate of the membrane fraction. The precipitate was suspended in 2 ml of an assay buffer [50 mM Tris-HCl (pH 7.5), 1 mM EDTA, 0.1% BSA (bovine serum albumin), 10 mM MgCl2, 100 mM NaCl, 1 μM GDP (guanosine 5′-diphosphate), 0.25 mM PMSF (phenylmethylsulfonyl fluoride), […]] and centrifuged at 100,000×g for 1 hr. The membrane fraction recovered as precipitate was suspended again in 20 ml of an assay buffer, and after dispensing, preserved at −80° C. and used upon thawing each time when in use.
# The MCH receptor antagonistic activity of the test compound was determined as follows. The membrane fractions of SLC-1 expression CHO cells (171 μl) diluted with an assay buffer was dispensed to a polypropylene 96 well plate and 3×10^−10 M MCH (2 μl) diluted with DMSO solution, test compound solution (2 μl) diluted to various concentrations and [^35S]-Guanosine 5′-(γ-thio)triphosphate (25 μl, Daiichi Pure Chemicals Co., Ltd.) were respectively added (cellular membrane final concentration: 20 μg/ml, [^35S]-Guanosine 5′-(γ-thio)triphosphate final concentration: 0.33 nM). The reaction mixture was reacted at 25° C. for 1 hr with stirring, suction filtered with a glass filter (GF-C) and washed 3 times with a wash solution (300 μl, 50 mM Tris-HCl buffer, pH 7.5). Liquid scintillator ([…]) was added to the glass filter and the residual radioactivity was determined by a liquid scintillation counter.
# Binding inhibition (%)=(radioactivity upon addition of test compound and MCH−radioactivity upon addition of DMSO solution)/(radioactivity upon addition of MCH−radioactivity upon addition of DMSO solution)×100
# From the binding inhibition (%), IC50 of the test compound was calculated.
row,SMILES,IC50 [nM]
1,"Cc1c(NC(=O)c2ccc(OCC3CC3)cc2)ccc2cc(CNCCCNS(C)(=O)=O)cnc12 [Ex. 13, 4-(cyclopropylmethoxy)-N-{8-methyl-3-[({3-[(methylsulfonyl)amino]propyl}amino)methyl]quinolin-7-yl}benzamide]",2.8
2,"Cc1c(NC(=O)c2ccc(OCCC3CC3)cc2)ccc2cc(CNC3CC[S+]([O-])CC3)cnc12 (stereo not drawn) [Ex. 22, 4-(2-cyclopropylethoxy)-N-(8-methyl-3-{[(cis-1-oxidotetrahydro-2H-thiopyran-4-yl)amino]methyl}quinolin-7-yl)benzamide]",1.8
3,"Cc1c(NC(=O)c2ccc(OCC3CC3)cc2)ccc2cc(CNC3CCS(=O)(=O)CC3)cnc12 [Ex. 31, 4-(cyclopropylmethoxy)-N-(3-{[(1,1-dioxidotetrahydro-2H-thiopyran-4-yl)amino]methyl}-8-methylquinolin-7-yl)benzamide]",5.1
4,"Cc1c(NC(=O)c2ccc(OCC3CC3)cc2)ccc2cc(CNCC3(O)CCS(=O)(=O)CC3)cnc12 [Ex. 15, 4-(cyclopropylmethoxy)-N-[3-({[(4-hydroxy-1,1-dioxidotetrahydro-2H-thiopyran-4-yl)methyl]amino}methyl)-8-methylquinolin-7-yl]benzamide]",5.6
5,"Cc1c(NC(=O)c2ccc(OCC3CC3)cc2)ccc2cc(CNCC3CCS(=O)(=O)CC3)cnc12 [Ex. 16, 4-(cyclopropylmethoxy)-N-[3-({[(1,1-dioxidotetrahydro-2H-thiopyran-4-yl)methyl]amino}methyl)-8-methylquinolin-7-yl]benzamide]",1.8
6,"Cc1c(NC(=O)c2ccc(OCC3CC3)cc2)ccc2cc(CNCCNS(C)(=O)=O)cnc12 [Ex. 6, 4-(cyclopropylmethoxy)-N-{8-methyl-3-[({2-[(methylsulfonyl)amino]ethyl}amino)methyl]quinolin-7-yl}benzamide]",4
7,"Cc1c(NC(=O)c2ccc(OCC3CC3)cc2)ccc2cc(CNC3CCN(S(C)(=O)=O)CC3)cnc12 [Ex. 8, 4-(cyclopropylmethoxy)-N-[8-methyl-3-({[1-(methylsulfonyl)piperidin-4-yl]amino}methyl)quinolin-7-yl]benzamide]",3.9
8,"Cc1c(NC(=O)c2ccc(/C=C/C3CC3)cc2)ccc2cc(CNC3CCS(=O)(=O)CC3)cnc12 [Ex. 45, 4-[(E)-2-cyclopropylvinyl]-N-(3-{[(1,1-dioxidotetrahydro-2H-thiopyran-4-yl)amino]methyl}-8-methylquinolin-7-yl)benzamide]",4.9
9,"CC1=C(CNC2CCS(=O)(=O)CC2)CCc2cc(NC(=O)c3ccc(OCC4CC4)cc3)ccc21 [Ex. 47, 4-(cyclopropylmethoxy)-N-(6-{[(1,1-dioxidotetrahydro-2H-thiopyran-4-yl)amino]methyl}-5-methyl-7,8-dihydronaphthalen-2-yl)benzamide]",6.7
10,"Cc1c(NC(=O)c2ccc(OCC3CC3)cc2)ccc2cc([C@@H](C)NC3CC[S+]([O-])CC3)cnc12 (stereo partly drawn) [Ex. 30, 4-(cyclopropylmethoxy)-N-(8-methyl-3-{(1R)-1-[cis-(1-oxidotetrahydro-2H-thiopyran-4-yl)amino]ethyl}quinolin-7-yl)benzamide]",3.9
